What follows are compounds tested on hepatitis virus B (HBV) infection (assay: HepG2 NTCP assay (HBcAg staining as marker of HBV infection)). Details: HepG2-NTCP cells infected with HBV, HBV core antigen (HBcAg) as marker of infection.
Format: cell-based
Description: The principle of the hepG2-NTCP assay is to measure the effect of a test compound on the inhibition of the hepatitis virus B (HBV) infection compared to a reference compound. To be able to infect the hepatocellular carcinoma cells (HepG2) with HBV, HepG2 cells were stably transfected with the Na+-taurocholate co-transporting polypeptide (NTCP) receptor, also referred to as Sodium/bile acid cotransporter (SLC10A1), which is necessary for HBV infection. In this assay the HBV core antigen (HBcAg) is used as a marker of HBV infection. Nuclei count is used as an indication for compound toxicity.
On day one, HepG2-NTCP cells ((Ni et al., 2014)) are seeded at 5000 cells in 50 µL per well in assay medium (DMEM high glucose supplemented with 10% non-heat inactivated (non HI) fetal bovine serum (FBS), 1% P/S, 1% L-glutamine and 1% MEM NEAA) in 384 well plate and incubated at 37°C, 5% CO2 overnight.
Compounds are prepared as 10 point serial dilutions using 1/3 dilution steps in 100% DMSO starting from 10 mM highest concentration, unless otherwise requested for very potent compounds, which started from 5mM or 1mM stock. Compounds are further diluted 1/500 in assay medium.
A negative control (vehicle: 24 wells with 0.2% DMSO) and positive control (24 wells with 100nM Myrcludex B (Cas no.: 406461-66-3), 0.2% DMSO and in 10 point DR) are included in the experiments.
On the second day, 40µl medium is removed from the cells with the plate washer (Select 405 microplate washer, Biotek). 15 µL of diluted compound series is transferred to the assay plate and cells are infected with 15 µL of HBV mix (HBV virus, 4%PEG, 1%DMSO in assay medium). The infection is performed in assay medium containing final concentration of 1% DMSO. The assay plate is incubated at 37°C, 5% CO2 overnight.
The next day, 30µl compound and HBV mix are removed from the assay plate with the plate washer and 30 µL of compound series diluted 1/500 in assay medium containing final concentration of 2.5% DMSO is added to the cell assay plate. The assay plate is incubated at 37°C, 5% CO2 for 5 days.
After 5 days of incubation, supernatant is removed from the cells with the plate washer. Cells are fixed with 50 µL of 3.7% formaldehyde added with the Well mate (Matrix technologies) and incubated for 30 min at room temperature. After fixation, cells are washed four times with phosphate buffer saline (1xPBS, 137mM NaCl, 10mM na2HPO4, 2.7mM KCl, 1.8mM KH2PO4 at pH7.4). The cells are finally subjected to HBc staining.
First, the assay plate is blocked with blocking buffer (2%FBS, 3% BSA, 0.2% TritonX100 in PBS) for 1 h at room temperature (optional to block overnight at 4°C).
After 4 washes of PBST (1XPBS + 0.05% Tween) with the plate washer, the assay plate is incubated with 30 µL diluted primary antibody (1/700 Rabbit anti-HBV core antigen, Dako, B0586 or 1/350 Rabbit anti HBV core antigen, Invitrogen, PA516368) in blocking buffer and incubated for 90 min at room temperature.
After 4 washes of PBST with the plate washer, the assay plate is incubated with 50 µL of secondary antibody (Donkey-anti-rabbit Alexa 488 antibody, Lifetechnologies A21206) 1/500 diluted in blocking buffer and incubated for 60 min at room temperature and in the dark.
The assay plate is washed 4 times with PBST on the plate washer and incubated with 50µL of DAPI (Sigma D9542, stock 5mg/mL) 1/10000 diluted in PBS for 15-30 min at room temperature and in the dark. The assay plate is now ready for read out on the InCell Analyzer 2200 (GE Healthcare).
Raw data are generated following read-out performed on InCell 2200 and are imported into the galapagos LIMS for automated calculation of percentage inhibition (PIN) and toxicity by nuclei count, using the control wells mentioned above, and creation of Dose Response curves. Table V. Hepg2 NTCP assay activity of illustrative compounds of the invention

IC50 [nM]	Structure (SMILES)
1 to 20	COCCCOc1cc2c(cc1Cl)-c1c(cc(C(=O)O)c(=O)n1C1CC(F)(F)C1)C(C(C)C)O2 (stereo not drawn) [Compound 23, 9-chloro-1-(3,3-difluorocyclobuty 1)-5-isopropyl-8-(3-methoxypropoxy) -2-oxo-5H-chromeno[4,3-b]pyridine-3-carboxylic acid]
0.001 to 1	COCCCOc1cc2c(cc1C#N)-c1c(cc(C(=O)O)c(=O)n1C1CC1)C(C(C)C)O2 (stereo not drawn) [Compound 24, 9-cyano-1-cyclopropyl-5-isopropyl-8-(3-methoxypropoxy) -2-oxo-5H-chromeno[4,3-b]pyridine-3-carboxylic acid]
0.001 to 1	COCCOc1cc2c(cc1Cl)-c1c(cc(C(=O)O)c(=O)n1C1CC1)C(C1(C)COC1)O2 (stereo not drawn) [Compound 25, 9-chloro-1-cyclopropyl-8-(2-methoxyethoxy)-5-(3-methyloxetan-3-yl)-2-oxo-5H-chromeno [4,3-b]pyridine-3-carboxylic acid]
0.001 to 1	COCCCOc1cc2c(cc1F)-c1c(cc(C(=O)O)c(=O)n1C1CCC1)C(C1(C)COC1)O2 (stereo not drawn) [Compound 26, 1-cyclobutyl-9-fluoro-8-(3-methoxypropoxy) -5-(3-methyloxetan-3-yl)-2-oxo-5H-chromeno[4,3-b]pyridine-3-carboxylic acid]
0.001 to 1	[2H]C1([2H])C(n2c3c(cc(C(=O)O)c2=O)C(C2(C)COC2)Oc2cc(OCCCOC)c(F)cc2-3)C1([2H])[2H] (stereo not drawn) [Compound 27, 9-fluoro-8-(3-methoxypropoxy) -5-(3-methyloxetan-3-yl)-2-oxo-1-(2,2,3,3-tetradeuteriocyclopropyl)-5H-chromeno[4,3-b]pyridine-3-carboxylic acid]
1 to 20	COc1cc2c(cc1OCC1(C)COC1)OC(C(C)C)c1cc(C(=O)O)c(=O)n(C3CC3)c1-2 (stereo not drawn) [Compound 28, 1-cyclopropyl-5-isopropyl-9-methoxy-8-[(3-methyloxetan-3-yl)methoxy]-2-oxo-5H-chromeno[4,3-b]pyridine-3-carboxylic acid]
1 to 20	COc1cc2c(cc1OCC1CN(C)C(=O)O1)OC(C(C)C)c1cc(C(=O)O)c(=O)n(C3CC3)c1-2 (stereo not drawn) [Compound 29, 1-cyclopropyl-5-isopropyl-9-methoxy-8-[(3-methyl-2-oxooxazolidin-5-yl)methoxy]-2-oxo-5H-chromeno[4,3-b]pyridine-3-carboxylic acid]
1 to 20	COc1cc2c(cc1OCCCC#N)OC(C(C)C)c1cc(C(=O)O)c(=O)n(C3CC3)c1-2 (stereo not drawn) [Compound 30, 8-(3-cyanopropoxy)-1-cyclopropyl-5-isopropyl-9-methoxy-2-oxo-5H-chromeno[4,3-b]pyridine-3-carboxylic acid]
1 to 20	COCCOc1cc2c(cc1OC)-c1c(cc(C(=O)O)c(=O)n1C1CC1)C(C(C)C)O2 (stereo not drawn) [Compound 31, 1-cyclopropyl-5-isopropyl-9-methoxy-8-(2-methoxyethoxy)-2-oxo-5H-chromeno[4,3-b]pyridine-3-carboxylic acid]
1 to 20	COc1cc2c(cc1OCC1CN(S(C)(=O)=O)C1)OC(C(C)C)c1cc(C(=O)O)c(=O)n(C3CC3)c1-2 (stereo not drawn) [Compound 32, 1-cyclopropyl-5-isopropyl-9-methoxy-8-[(1-methylsulfonylazetidin-3-yl)methoxy]-2-oxo-5H-chromeno[4,3-b]pyridine-3-carboxylic acid]
1 to 20	COc1cc2c(cc1OCC1COCCO1)OC(C(C)C)c1cc(C(=O)O)c(=O)n(C3CC3)c1-2 (stereo not drawn) [Compound 33, 1-cyclopropyl-8-(1,4-dioxan-2-ylmethoxy)-5-isopropyl-9-methoxy-2-oxo-5H-chromeno[4,3-b]pyridine-3-carboxylic acid]
1 to 20	COc1cc2c(cc1OCC1COC1)OC(C(C)C)c1cc(C(=O)O)c(=O)n(C3CC3)c1-2 (stereo not drawn) [Compound 34, 1-cyclopropyl-5-isopropyl-9-methoxy-8-(oxetan-3-ylmethoxy)-2-oxo-5H-chromeno[4,3-b]pyridine-3-carboxylic acid]
20 to 100	COc1cc2c(cc1OCC1CNC(=O)O1)OC(C(C)C)c1cc(C(=O)O)c(=O)n(C3CC3)c1-2 (stereo not drawn) [Compound 35, 1-cyclopropyl-5-isopropyl-9-methoxy-2-oxo-8-[(2-oxooxazolidin-5-yl)methoxy]-5H-chromeno[4,3-b]pyridine-3-carboxylic acid]
1 to 20	COc1cc2c(cc1OCCCO)OC(C(C)C)c1cc(C(=O)O)c(=O)n(C3CC3)c1-2 (stereo not drawn) [Compound 36, 1-cyclopropyl-8-(3-hydroxypropoxy) -5-isopropyl-9-methoxy-2-oxo-5H-chromeno[4,3-b]pyridine-3-carboxylic acid]
1 to 20	CCOc1cc2c(cc1OC)-c1c(cc(C(=O)O)c(=O)n1C1CC1)C(C(C)C)O2 (stereo not drawn) [Compound 37, 1-cyclopropyl-8-ethoxy-5-isopropyl-9-methoxy-2-oxo-5H-chromeno[4,3-b]pyridine-3-carboxylic acid]
1 to 20	COc1cc2c(cc1OC(C)C)OC(C(C)C)c1cc(C(=O)O)c(=O)n(C3CC3)c1-2 (stereo not drawn) [Compound 39, 1-cyclopropyl-8-isopropoxy-5-isopropyl-9-methoxy-2-oxo-5H-chromeno[4,3-b]pyridine-3-carboxylic acid]
1 to 20	CCCOc1cc2c(cc1OC)-c1c(cc(C(=O)O)c(=O)n1C1CC1)C(C(C)C)O2 (stereo not drawn) [Compound 40, 1-cyclopropyl-5-isopropyl-9-methoxy-2-oxo-8-propoxy-5H-chromeno[4,3-b]pyridine-3-carboxylic acid]
> 100	COc1cc2c(cc1OCc1ccccc1)OC(C(C)C)c1cc(C(=O)O)c(=O)n(C3CC3)c1-2 (stereo not drawn) [Compound 41, 8-benzyloxy-1-cyclopropyl-5-isopropyl-9-methoxy-2-oxo-5H-chromeno[4,3-b]pyridine-3-carboxylic acid]
1 to 20	CCOCCOc1cc2c(cc1OC)-c1c(cc(C(=O)O)c(=O)n1C1CC1)C(C(C)C)O2 (stereo not drawn) [Compound 42, 1-cyclopropyl-8-(2-ethoxyethoxy)-5-isopropyl-9-methoxy-2-oxo-5H-chromeno[4,3-b]pyridine-3-carboxylic acid]
1 to 20	COc1cc2c(cc1OCC1(C#N)CCC1)OC(C(C)C)c1cc(C(=O)O)c(=O)n(C3CC3)c1-2 (stereo not drawn) [Compound 43, 8-[(1-cyanocyclobutyl)methoxy]-1-cyclopropyl-5-isopropyl-9-methoxy-2-oxo-5H-chromeno[4,3-b]pyridine-3-carboxylic acid]
> 100	COCCCOc1cc2c(cc1F)-c1c(cc(C(=O)O)c(=O)n1C1CC1)[C@@H](C(C)C)O2 [Compound 45, (5R)-1-cyclopropyl-9-fluoro-5-isopropyl-8-(3-methoxypropoxy)-2-oxo-5H-chromeno[4,3-b]pyridine-3-carboxylic acid]
0.001 to 1	COCCCOc1cc2c(cc1Cl)-c1c(cc(C(=O)O)c(=O)n1C1CCC1)C(C1(C)COC1)O2 (stereo not drawn) [Compound 48, 9-chloro-1-cyclobutyl-8-(3-methoxypropoxy) -5-(3-methyloxetan-3-yl)-2-oxo-5H-chromeno[4,3-b]pyridine-3-carboxylic acid]
0.001 to 1	COCCCOc1cc2c(cc1F)-c1c(cc(C(=O)O)c(=O)n1C1CC1)C(C1(C)COC1)O2 (stereo not drawn) [Compound 49, 1-cyclopropyl-9-fluoro-8-(3-methoxypropoxy) -5-(3-methyloxetan-3-yl)-2-oxo-5H-chromeno[4,3-b]pyridine-3-carboxylic acid]

Structure (SMILES)	IC50 [nM]
COc1cc2c(cc1OCC(C)C)OC(C(C)C)c1cc(C(=O)O)c(=O)n(C3CC3)c1-2 (stereo not drawn) [Compound 38, 1-cyclopropyl-8-isobutoxy-5-isopropyl-9-methoxy-2-oxo-5H-chromeno[4,3-b]pyridine-3-carboxylic acid]	1 to 20

Source: patent publication EP3720857B1, “2-OXO-5H-CHROMENO[4,3-B]PYRIDINES FOR USE IN THE TREATMENT OF HEPATITIS B” (Galapagos NV, priority 2017, dated 2019)
